ChEMBL document CHEMBL3045236, “Conventional and microwave techniques for synthesis and antimicrobial studies of novel 1-[2-(2-chloro(3-quinolyl))-5-(4-nitrophenyl)-(1,3,4-oxadiazolin-3-yl)]-3-(aryl)prop-2-en-1-ones” (2012)
≈ marks a conversion by molar mass, not a printed value.

Columns and labels:
Type in all cases: functional
Escherichia coli = experiment: Antimicrobial activity against Escherichia coli MTCC 443 after 24 and 48 hr by serial broth dilution method
Candida albicans = experiment: Antimicrobial activity against Candida albicans MTCC 227
Staphylococcus aureus = experiment: Antimicrobial activity against Staphylococcus aureus MTCC 96 after 24 and 48 hr by serial broth dilution method
Pseudomonas aeruginosa = experiment: Antimicrobial activity against Pseudomonas aeruginosa MTCC 1688 after 24 and 48 hr by serial broth dilution method
Aspergillus clavatus = experiment: Antimicrobial activity against Aspergillus clavatus MTCC 1323
Streptococcus pyogenes = experiment: Antimicrobial activity against Streptococcus pyogenes MTCC 442 after 24 and 48 hr by serial broth dilution method
Aspergillus niger = experiment: Antimicrobial activity against Aspergillus niger MTCC 282

Row | MIC (Escherichia coli) | MIC (Candida albicans) | MIC (Staphylococcus aureus) | MIC (Pseudomonas aeruginosa) | MIC (Aspergillus clavatus) | MIC (Streptococcus pyogenes) | MIC (Aspergillus niger) | Structure (SMILES)
1 | 200 µg/mL (≈ 401 µM) | 250 µg/mL (≈ 501 µM) | 200 µg/mL (≈ 401 µM) | 100 µg/mL (≈ 200 µM) | 1000 µg/mL (≈ 2000 µM) | 250 µg/mL (≈ 501 µM) | 100 µg/mL (≈ 200 µM) | Cc1ccc(/C=C/C(=O)N2N=C(c3ccc([N+](=O)[O-])cc3)OC2c2cc3ccccc3nc2Cl)cc1 (stereo unspecified)
2 | 100 µg/mL (≈ 194 µM) | 500 µg/mL (≈ 971 µM) | 100 µg/mL (≈ 194 µM) | 500 µg/mL (≈ 971 µM) | 100 µg/mL (≈ 194 µM) | 100 µg/mL (≈ 194 µM) | 1000 µg/mL (≈ 1940 µM) | COc1ccc(/C=C/C(=O)N2N=C(c3ccc([N+](=O)[O-])cc3)OC2c2cc3ccccc3nc2Cl)cc1 (stereo unspecified)
3 | 200 µg/mL (≈ 348 µM) | 100 µg/mL (≈ 174 µM) | 500 µg/mL (≈ 870 µM) | 200 µg/mL (≈ 348 µM) | 100 µg/mL (≈ 174 µM) | 500 µg/mL (≈ 870 µM) | 100 µg/mL (≈ 174 µM) | COc1cc(/C=C/C(=O)N2N=C(c3ccc([N+](=O)[O-])cc3)OC2c2cc3ccccc3nc2Cl)cc(OC)c1OC (stereo unspecified)
4 | 500 µg/mL (≈ 963 µM) | 250 µg/mL (≈ 481 µM) | 500 µg/mL (≈ 963 µM) | 500 µg/mL (≈ 963 µM) | 500 µg/mL (≈ 963 µM) | 500 µg/mL (≈ 963 µM) | 500 µg/mL (≈ 963 µM) | O=C(/C=C/c1ccccc1Cl)N1N=C(c2ccc([N+](=O)[O-])cc2)OC1c1cc2ccccc2nc1Cl (stereo unspecified)
5 | 100 µg/mL (≈ 193 µM) | 100 µg/mL (≈ 193 µM) | 100 µg/mL (≈ 193 µM) | 200 µg/mL (≈ 385 µM) | 500 µg/mL (≈ 963 µM) | 100 µg/mL (≈ 193 µM) | 100 µg/mL (≈ 193 µM) | O=C(/C=C/c1cccc(Cl)c1)N1N=C(c2ccc([N+](=O)[O-])cc2)OC1c1cc2ccccc2nc1Cl (stereo unspecified)
6 | 200 µg/mL (≈ 385 µM) | 100 µg/mL (≈ 193 µM) | 1000 µg/mL (≈ 1930 µM) | 100 µg/mL (≈ 193 µM) | 1000 µg/mL (≈ 1930 µM) | 500 µg/mL (≈ 963 µM) | 200 µg/mL (≈ 385 µM) | O=C(/C=C/c1ccc(Cl)cc1)N1N=C(c2ccc([N+](=O)[O-])cc2)OC1c1cc2ccccc2nc1Cl (stereo unspecified)
7 | 50 µg/mL (≈ 94.4 µM) | 500 µg/mL (≈ 944 µM) | 500 µg/mL (≈ 944 µM) | 50 µg/mL (≈ 94.4 µM) | 100 µg/mL (≈ 189 µM) | 200 µg/mL (≈ 377 µM) | 500 µg/mL (≈ 944 µM) | O=C(/C=C/c1ccccc1[N+](=O)[O-])N1N=C(c2ccc([N+](=O)[O-])cc2)OC1c1cc2ccccc2nc1Cl (stereo unspecified)
8 | 1000 µg/mL (≈ 1890 µM) | 100 µg/mL (≈ 189 µM) | 500 µg/mL (≈ 944 µM) | 500 µg/mL (≈ 944 µM) | 500 µg/mL (≈ 944 µM) | 100 µg/mL (≈ 189 µM) | 100 µg/mL (≈ 189 µM) | O=C(/C=C/c1cccc([N+](=O)[O-])c1)N1N=C(c2ccc([N+](=O)[O-])cc2)OC1c1cc2ccccc2nc1Cl (stereo unspecified)
9 | 100 µg/mL (≈ 189 µM) | 500 µg/mL (≈ 944 µM) | 100 µg/mL (≈ 189 µM) | 500 µg/mL (≈ 944 µM) | 100 µg/mL (≈ 189 µM) | 500 µg/mL (≈ 944 µM) | 1000 µg/mL (≈ 1890 µM) | O=C(/C=C/c1ccc([N+](=O)[O-])cc1)N1N=C(c2ccc([N+](=O)[O-])cc2)OC1c1cc2ccccc2nc1Cl (stereo unspecified)
10 | 500 µg/mL (≈ 998 µM) | 1000 µg/mL (≈ 2000 µM) | 500 µg/mL (≈ 998 µM) | 250 µg/mL (≈ 499 µM) | 500 µg/mL (≈ 998 µM) | 250 µg/mL (≈ 499 µM) | 500 µg/mL (≈ 998 µM) | O=C(/C=C/c1ccccc1O)N1N=C(c2ccc([N+](=O)[O-])cc2)OC1c1cc2ccccc2nc1Cl (stereo unspecified)
11 | 25 µg/mL (≈ 49.9 µM) | 500 µg/mL (≈ 998 µM) | 200 µg/mL (≈ 399 µM) | 50 µg/mL (≈ 99.8 µM) | 100 µg/mL (≈ 200 µM) | 100 µg/mL (≈ 200 µM) | 200 µg/mL (≈ 399 µM) | O=C(/C=C/c1cccc(O)c1)N1N=C(c2ccc([N+](=O)[O-])cc2)OC1c1cc2ccccc2nc1Cl (stereo unspecified)
12 | 250 µg/mL (≈ 499 µM) | 500 µg/mL (≈ 998 µM) | 100 µg/mL (≈ 200 µM) | 50 µg/mL (≈ 99.8 µM) | 500 µg/mL (≈ 998 µM) | 500 µg/mL (≈ 998 µM) | 100 µg/mL (≈ 200 µM) | O=C(/C=C/c1ccc(O)cc1)N1N=C(c2ccc([N+](=O)[O-])cc2)OC1c1cc2ccccc2nc1Cl (stereo unspecified)
13 |  | 500 µg/mL (≈ 1420 µM) |  |  | 100 µg/mL (≈ 283 µM) |  | 100 µg/mL (≈ 283 µM) | COC1=CC(=O)C[C@@H](C)[C@]12Oc1c(Cl)c(OC)cc(OC)c1C2=O [GRISEOFULVIN]

Row | Structure (SMILES) | MIC (Escherichia coli) | MIC (Candida albicans) | MIC (Staphylococcus aureus) | MIC (Pseudomonas aeruginosa) | MIC (Aspergillus clavatus) | MIC (Streptococcus pyogenes) | MIC (Aspergillus niger)
14 | CC1(C)S[C@@H]2[C@H](NC(=O)[C@H](N)c3ccccc3)C(=O)N2[C@H]1C(=O)O [AMPICILLIN] | 100 µg/mL (≈ 286 µM) |  | 250 µg/mL (≈ 715 µM) | 100 µg/mL (≈ 286 µM) |  | 100 µg/mL (≈ 286 µM) | 
